Results taken from PubChem BioAssay (NCI).
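How tested: cells in 96-well plates exposed to compound for 48 hours at five concentrations. GI50 is the concentration that inhibits growth by half. TGI: total growth inhibition.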

Tests used:
Assay in all cases: NCI-60 cell line screen, 48 h
HCT-116 colon = system: HCT-116 colon
HOP-92 NSCLC = system: HOP-92 NSCLC
K-562 leukemia = system: K-562 leukemia
OVCAR-5 ovarian = system: OVCAR-5 ovarian
SN12C renal = system: SN12C renal
BT-549 breast = system: BT-549 breast
HCC-2998 colon = system: HCC-2998 colon
SNB-75 CNS = system: SNB-75 CNS
RPMI-8226 leukemia = system: RPMI-8226 leukemia
UO-31 renal = system: UO-31 renal
SF-539 CNS = system: SF-539 CNS
MDA-MB-435 = system: MDA-MB-435
SR leukemia = system: SR leukemia
EKVX NSCLC = system: EKVX NSCLC
IGROV1 ovarian = system: IGROV1 ovarian
NCI-H460 lung = system: NCI-H460 lung
A498 renal = system: A498 renal
UACC-62 melanoma = system: UACC-62 melanoma
SK-MEL-28 melanoma = system: SK-MEL-28 melanoma
A549 NSCLC = system: A549 NSCLC
OVCAR-8 ovarian = system: OVCAR-8 ovarian
LOX IMVI melanoma = system: LOX IMVI melanoma
T-47D breast = system: T-47D breast
PC-3 prostate = system: PC-3 prostate
HCT-15 colon = system: HCT-15 colon
HL-60(TB) leukemia = system: HL-60(TB) leukemia
MDA-MB-231 breast = system: MDA-MB-231 breast
NCI-H23 lung = system: NCI-H23 lung
RXF 393 renal = system: RXF 393 renal
OVCAR-3 ovarian = system: OVCAR-3 ovarian

Work on `O=C(N/N=C/c1ccc(-c2ccc(O)cc2)o1)c1[nH]c2ccc(Br)cc2c1-c1ccccc1` yielded a GI50 (HCT-116 colon) of 393 nM, a TGI (HCT-116 colon) of 3550 nM and a GI50 (HOP-92 NSCLC) of 2750 nM. It also gave a TGI (HOP-92 NSCLC) of 11200 nM, a GI50 (K-562 leukemia) of 371 nM and a TGI (K-562 leukemia) of 17900 nM. The GI50 (OVCAR-5 ovarian) was 515 nM, the TGI (OVCAR-5 ovarian) was 13800 nM and the GI50 (SN12C renal) was 417 nM. For the same compound, the TGI (SN12C renal) was 2870 nM, the GI50 (BT-549 breast) was 415 nM and the TGI (BT-549 breast) was 3740 nM. For the same compound, the GI50 (HCC-2998 colon) was 860 nM, the TGI (HCC-2998 colon) was 3670 nM and the GI50 (SNB-75 CNS) was 3130 nM. For the same compound, the TGI (SNB-75 CNS) was 20000 nM, the GI50 (RPMI-8226 leukemia) was 442 nM and the TGI (RPMI-8226 leukemia) was greater than 22200 nM. The GI50 (UO-31 renal) was 2050 nM, the TGI (UO-31 renal) was 16200 nM and the GI50 (SF-539 CNS) was 240 nM. It also gave a TGI (SF-539 CNS) of 536 nM, a GI50 (MDA-MB-435) of 248 nM and a TGI (MDA-MB-435) of 602 nM. The GI50 (SR leukemia) was 490 nM, the TGI (SR leukemia) was 3230 nM and the GI50 (EKVX NSCLC) was 3440 nM. The TGI (EKVX NSCLC) was 15200 nM, the GI50 (IGROV1 ovarian) was 617 nM and the TGI (IGROV1 ovarian) was 17800 nM. The GI50 (NCI-H460 lung) was 342 nM, the TGI (NCI-H460 lung) was 1270 nM and the GI50 (A498 renal) was 8210 nM. It also gave a TGI (A498 renal) of 21900 nM, a GI50 (UACC-62 melanoma) of 527 nM and a TGI (UACC-62 melanoma) of 15100 nM. The GI50 (SK-MEL-28 melanoma) was 1960 nM, the TGI (SK-MEL-28 melanoma) was 18000 nM and the GI50 (A549 NSCLC) was 987 nM. The TGI (A549 NSCLC) was 16200 nM, the GI50 (OVCAR-8 ovarian) was 363 nM and the TGI (OVCAR-8 ovarian) was 900 nM. For the same compound, the GI50 (LOX IMVI melanoma) was 356 nM, the TGI (LOX IMVI melanoma) was 3220 nM and the GI50 (T-47D breast) was 2670 nM. For the same compound, the TGI (T-47D breast) was 26500 nM, the GI50 (PC-3 prostate) was 569 nM and the TGI (PC-3 prostate) was 14100 nM. It also gave a GI50 (HCT-15 colon) of 354 nM, a TGI (HCT-15 colon) of 5300 nM and a GI50 (HL-60(TB) leukemia) of 257 nM. It also gave a TGI (HL-60(TB) leukemia) of 713 nM, a GI50 (MDA-MB-231 breast) of 323 nM and a TGI (MDA-MB-231 breast) of 790 nM. For the same compound, the GI50 (NCI-H23 lung) was 378 nM, the TGI (NCI-H23 lung) was 12700 nM and the GI50 (RXF 393 renal) was 414 nM. It also gave a TGI (RXF 393 renal) of 2180 nM and a GI50 (OVCAR-3 ovarian) of 275 nM.
